Where a name gives a salt, the structure may show the parent alone.

The test system of assay [1] is Human Breast Carcinoma MDA-MB-231. Kind of assay: Anti-tumor efficacy of doxorubicin with Compound X, s.c. MDA-MB-231 xenograft. As to conditions: vs Gelucire vehicle day 24. The format is in vivo, Nu/Nu mice. The protocol: Exponentially grown human breast carcinoma MDA-MB-231 cells [DMEM with 10% FBS, and pen/strep (Gibco)] were harvested and inoculated subcutaneously (3-5×10^6 cells/mouse, 200 μl) into the right flank of female Nu/Nu mice (˜20 grams; Charles River Laboratories, MA). 36 days after inoculation, tumor-bearing animals of approximately 75 mm^3 in size were separated into control (n=19) or experimental groups of animals (n=7 each).
[…] The mesylate salt of 3-(4-Bromo-2,6-difluoro-benzyloxy)-5-[3-(4-pyrrolidin-1-yl-butyl)-ureido}-isothiazole-4-carboxylic acid amide was formulated in 5% Gelucire (Gattefosse Inc., France) and dosed po, qd×24 at 12.5, 25, 50 and 100 mg/kg. One group received 5% Gelucire only, (200 μl/animal, po, qd×24) which served as the vehicle control for the experiment.
(§1) Animal body weight and tumor measurements were obtained at regular intervals. Tumor volume (mm^3) was calculated using the formula length (mm)×width (mm)×width (mm)×0.5.
Mean tumor volume in Gelucire vehicle group on day 24 was used for the % growth inhibition calculation.

Assay [2] has as its system Human Colon Carcinoma Colo-205. Kind of assay: Anti-tumor efficacy of 5-FU with Compound X, s.c. Colo-205 xenograft. The format is in vivo. Particulars: vs Gelucire vehicle day 12. How it is done: (§2) Exponentially grown human colon carcinoma Colo-205 cells [RPMI 1640 with 10% FBS, and pen/strep (Gibco)] were harvested and inoculated subcutaneously (5×10^6 cells/mouse, 200 μl) into the right flank of female Nu/Nu mice (˜20 grams; Charles River Laboratories, MA). 9 days after inoculation, tumor-bearing animals of approximately 150 mm^3 in size were separated into groups of 7 animals each.
5-FU (ICN Pharmaceuticals, Inc., Costa Mesa, Calif.) was formulated in 0.9% saline and dosed iv×1 at 25 and 100 mg/kg. One group received 0.9% saline only (200 μl/animal, iv×1) which served as the control for the experiment. The mesylate salt of 3-(4-Bromo-2,6-difluoro-benzyloxy)-5-[3-(4-pyrrolidin-1-yl-butyl)-ureido}-isothiazole-4-carboxylic acid amide was formulated in 5% Gelucire (Gattefosse Inc., France) and dosed po, qd×12 at 25, 50 and 100 mg/kg. One group received 5% Gelucire only, (200 μl/animal, po, qd×12) which served as the vehicle control for the experiment.
as §1
(§3) Mean tumor volume in Gelucire vehicle group on day 12 was used for the % growth inhibition calculation.

In assay [3] the test system is Human Non Small Cell Lung Carcinoma EBC-1. Kind of assay: Anti-tumor efficacy of paclitaxel (Taxol) with Compound X, s.c. EBC-1 xenograft. In kind it is in vivo, Nu/Nu mice. As to conditions: vs Gelucire vehicle day 15. The protocol:
Exponentially grown human non-small cell lung carcinoma EBC-1 cells [(RPMI 1640 with 10% FBS, and pen/strep (Gibco)] were harvested and inoculated s.c. (10^7 cells/mouse, 200 μl) into the right flank of female Nu/Nu mice (˜20 grams; Charles River Laboratories, MA.). 7 days after inoculation, tumor-bearing animals of approximately 150 mm^3 in size were separated into groups of 5 animals each.
Compound X (the mesylate salt of 3-(4-Bromo-2,6-difluoro-benzyloxy)-5-[3-(4-pyrrolidin-1-yl-butyl)-ureido}-isothiazole-4-carboxylic acid amide) was formulated in 5% Gelucire (Gattefosse Inc. France) and dosed po., qd×15 at 12.5 and 100 mg/kg. Taxol® (MeadJohnson Oncology Products, Princeton, N.J.) was formulated in 0.9% sterile saline and dosed ip., qd×5 at 20 mg/kg. For control purposes one group received 5% Gelucire only (200 μl/animal, po, qd×15).
as §1
Mean tumor volume in Gelucire vehicle group on day 15 was used for the % growth inhibition calculation.

The test system is the same in assay [4]. The assay is described as follows: Anti-tumor efficacy of carboplatin with Compound X, s.c. EBC-1 xenograft. In kind it is in vivo. Particulars: vs saline vehicle day 14. The protocol: Exponentially grown human non-small cell lung carcinoma EBC-1 cells [RPMI 1640 with 10% FBS, and pen/strep (Gibco)] were harvested and inoculated subcutaneously (10^7 cells/mouse, 200 μl) into the right flank of female Nu/Nu mice (˜20 grams; Charles River Laboratories, MA). 7 days after inoculation, tumor-bearing animals of approximately 175 mm^3 in size were separated into groups of 8 animals each.
Carboplatin (Bristol Oncology Products, Princeton, N.J.) was formulated in 0.9% saline and dosed ip., q3d×4 at 25 and 50 mg/kg. One group received 0.9% saline only (200 μl/animal, ip, q3d×4) which served as the control for the experiment. […] One group received 5% Gelucire only, (200 μl/animal, po, qd×14) which served as the vehicle control for the experiment.
as §1
Mean tumor volume in saline vehicle group on day 14 was used for the % growth inhibition calculation.

For assay [5], the system named is Human Pancreatic Carcinoma Capan-1. The assay is described as follows: Anti-tumor efficacy of gemcitabine hydrochloride and Compound X, s.c. Capan-1 xenograft. The format is in vivo, Nu/Nu mice. Particulars: for % Tumor Growth Inhibition: vs Gelucire vehicle day 13. The protocol: (10^7 cells/mouse, 200 μl) into the right flank of female Nu/Nu mice (˜20 grams; […] An overview of each of the groups and the treatment is set forth below in the table. [table] Animal body weight and tumor measurements were obtained at regular intervals. […] Mean tumor volume in Gelucire vehicle group on day 13 was used for % growth inhibition calculation.

Assay [6] deals with Human Colon Carcinoma Colo-205. Kind of assay: Anti-tumor efficacy of CPT-11 with Compound X, s.c. Colo-205 xenograft. In kind it is in vivo, Nu/Nu mice. As to conditions: vs Gelucire vehicle day 12. The protocol: as §2
CPT-11 (Camptosar®, Pharmacia & Upjohn, Kalamazoo, Mich.) was formulated in 0.9% saline and dosed iv×1 at 25 and 75 mg/kg. One group received 0.9% saline only (200 μl/animal, iv×1) which served as the control for the experiment. The mesylate salt of 3-(4-Bromo-2,6-difluoro-benzyloxy)-5-[3-(4-pyrrolidin-1-yl-butyl)-ureido}-isothiazole-4-carboxylic acid amide was formulated in 5% Gelucire (Gattefosse Inc., France) and dosed po, qd×12 at 25, 50 and 100 mg/kg. One group received 5% Gelucire only, (200 μl/animal, po, qd×12) which served as the vehicle control for the experiment.
as §1, §3

Where [7] appears, read: Compound X 25 mg/kg, po, qd × 12.
The mark [8] stands for this setting: Compound X 50 mg/kg, po, qd × 12.
[9] abbreviates: Compound X 100 mg/kg, po, qd × 12.

Regarding `COc1cccc2c1C(=O)c1c(O)c3c(c(O)c1C2=O)C[C@@](O)(C(=O)CO)C[C@@H]3O[C@H]1C[C@H](N)[C@H](O)[C@H](C)O1` [Doxorubicin, reference compound], the “% Tumor Growth Inhibition” value in assay [1] (Doxorubicin 2.5 mg/kg, ip × 1) is reported as 7%; in assay [1] (Doxorubicin 10 mg/kg, ip × 1), 48%.

Take `O=c1[nH]cc(F)c(=O)[nH]1` [Compound 5-FU, 5-fluorouracil, reference compound]: the “% Tumor Growth Inhibition” value in assay [2] (5-FU 25 mg/kg, iv × 1) amounted to 24%; in assay [2] (5-FU 100 mg/kg, iv × 1) it was 59%.

Turning to `CC(=O)O[C@H]1C(=O)[C@@]2(C)[C@H]([C@H](OC(=O)c3ccccc3)[C@]3(O)C[C@H](OC(=O)[C@H](O)[C@@H](NC(=O)c4ccccc4)c4ccccc4)C(C)=C1C3(C)C)[C@]1(OC(C)=O)CO[C@@H]1C[C@@H]2O` [Taxol ®, Paclitaxel, reference compound], the “% Tumor Growth Inhibition” value in assay [3] (Taxol 20 mg/kg, ip, qd × 5) came to 75%.

`N.N.O=C([O-])C1(C(=O)[O-])CCC1.[Pt+2]` [Carboplatin, cis-diammine-1,1-cyclobutanedicarboxylato-platinum II]: the “% Tumor Growth Inhibition” value in assay [4] (Carboplatin 25 mg/kg, ip, q3d × 4) is 0%; in assay [4] (Carboplatin 50 mg/kg, ip, q3d × 4), 31%.

Consider `NC(=O)c1c(OCc2c(F)cc(Br)cc2F)nsc1NC(=O)NCCCCN1CCCC1` [Compound X, 3-(4-Bromo-2,6-difluoro-benzyloxy)-5-[3-(4-pyrrolidin-1-yl-butyl)-ureido}-isothiazole-4-carboxylic acid amide], for which the “% Tumor Growth Inhibition” value is recorded as 16% in assay [5] (Group 2: Compound X 25 mg/kg, po, qd × 13); 46% in assay [5] (Group 3: Compound X 100 mg/kg, po, qd × 13); 34% in assay [3] (Compound X 12.5 mg/kg, po, qd × 15); 72% in assay [3] (Compound X 100 mg/kg, po, qd × 15); 67% in assay [4] (Compound X 100 mg/kg, po, qd × 4); 21% in assay [2] (setting [7]). Also, the “% Tumor Growth Inhibition” value is listed as 47% in assay [2] (setting [8]); 64% in assay [2] (setting [9]); 9% in assay [6] (setting [7]); 28% in assay [6] (setting [8]); 66% in assay [6] (setting [9]); 24% in assay [1] (Compound X 25 mg/kg, po, qd × 24). Besides, the “% Tumor Growth Inhibition” value in assay [1] (Compound X 50 mg/kg, po, qd × 24) is recorded as 46%; in assay [1] (Compound X 100 mg/kg, po, qd × 24) it was 49%. Further, in assay [1] (Compound X 12.5 mg/kg, po, qd × 24, growth instead of inhibition), the “% tumor growth” value is recorded as “(10% tumor growth)”.

As to `CCc1c2c(nc3ccc(OC(=O)N4CCC(N5CCCCC5)CC4)cc13)-c1cc3c(c(=O)n1C2)COC(=O)[C@]3(O)CC` [CPT-11, irinotecan HCl, reference compound], the “% tumor growth” value in assay [6] (CPT-11 25 mg/kg, iv × 1, growth instead of inhibition) is reported as “(7% Tumor Growth)”. Besides, the “% Tumor Growth Inhibition” value in assay [6] (CPT-11 75 mg/kg, iv × 1) worked out at 5%.

Consider `Nc1ccn([C@@H]2O[C@H](CO)[C@@H](O)C2(F)F)c(=O)n1` [Gemcitabine HCl, Gemcitabine hydrochloride], for which the “% Tumor Growth Inhibition” value in assay [5] (Group 4: Gemcitabine HCl 1 mg/kg, ip, q3d × 4) is given as 0%; in assay [5] (Group 5: Gemcitabine HCl 5 mg/kg, ip, q3d × 4), 26%; in assay [5] (Group 6: Gemcitabine HCl 80 mg/kg, ip, q3d × 4) it was 83%. The same compound gave a mean tumor regression in assay [5] (Group 6: Gemcitabine HCl 80 mg/kg, ip, q3d × 4, day 1 volume of group = 100%) of 66% regression*.

(Values after patent US20070197517A1, “Combination therapy for hyperproliferative disease” (Pfizer Inc., priority 2002, published 2007).)
